{"source": "patent US11459321B2", "about": "“Broad spectrum antiviral compositions and methods” (priority 2017, dated 2022)"}
{"test_system": "human cytomegalovirus (HCMV)", "assay": "microbe, parasite or virus in culture", "assay_type": "cell-based", "conditions": "Human MRCS cells, 0.01 IU per cell, virus yield at 7 days post infection, mCherry positive cells", "units": {"IC50": "µM"}}
{"smiles": "c1cnn(-c2ccc(Cc3cnc(N4CCc5cc(-n6ccnc6)ccc5C4)s3)cc2)c1", "note": "[Example 18]", "IC50": 1.08}
{"test_system": "human cytomegalovirus (HCMV)", "assay": "microbe, parasite or virus in culture", "assay_type": "cell-based", "conditions": "Human betaherpesvirus 5, 168 h; Human MRCS cells, 0.01 IU per cell, virus yield at 7 days post infection, mCherry positive cells", "units": {"IC50": "µM"}}
{"smiles": "CC(C)c1cc(Cc2cnc(N3CCc4ccc(-c5cn(C)nn5)cc4C3)s2)cc(-n2cccn2)c1", "note": "[Example 1]", "IC50": 11.7}
{"smiles": "Cn1cc(-c2ccc3c(c2)CN(c2ncc(Cc4ccc(-n5cccn5)cc4)s2)CC3)nn1", "note": "[Example 2]", "IC50": 1.17}
{"smiles": "Cn1cc(-c2ccc3c(c2)CN(c2ncc(Cc4cccc(-n5cccn5)c4)s2)CC3)nn1", "note": "[Example 3]", "IC50": 1.91}
{"smiles": "c1cc(Cc2cnc(N3CCc4ccc(-c5c[nH]nn5)cc4C3)s2)cc(-n2cccn2)c1", "note": "[Example 4]", "IC50": 0.758}
{"smiles": "c1cnn(-c2ccc(Cc3cnc(N4CCc5ccc(-c6c[nH]nn6)cc5C4)s3)cc2)c1", "note": "[Example 5]", "IC50": 0.807}
{"smiles": "Cc1nc(-c2ccc3c(c2)CN(c2ncc(Cc4ccc(-n5cccn5)cc4)s2)CC3)no1", "note": "[Example 6]", "IC50": 3.37}
{"smiles": "COCCn1nncc1-c1ccc2c(c1)CN(c1ncc(Cc3ccc(-n4cccn4)cc3)s1)CC2", "note": "[Example 7]", "IC50": 1.7}
{"smiles": "COCCn1nncc1-c1ccc2c(c1)CN(c1ncc(Cc3cccc(-n4cccn4)c3)s1)CC2", "note": "[Example 8]", "IC50": 2.01}
{"smiles": "c1cnn(-c2ccc(Cc3cnc(N4CCc5ccc(-n6ccnc6)cc5C4)s3)cc2)c1", "note": "[Example 9]", "IC50": 0.479}
{"smiles": "COCCn1cc(-c2ccc3c(c2)CN(c2ncc(Cc4ccc(-n5cccn5)cc4)s2)CC3)nn1", "note": "[Example 11]", "IC50": 1.7}
{"smiles": "COCCn1cc(-c2ccc3c(c2)CN(c2ncc(Cc4cccc(-n5cccn5)c4)s2)CC3)nn1", "note": "[Example 12]", "IC50": 5.98}
{"smiles": "Cc1cn(-c2ccc3c(c2)CN(c2ncc(Cc4ccc(-n5cccn5)cc4)s2)CC3)cn1", "note": "[Example 13]", "IC50": 1.06}
{"smiles": "Cc1cn(-c2ccc3c(c2)CN(c2ncc(Cc4ccc(-n5cccn5)cc4)s2)CC3)c(C)n1", "note": "[Example 14]", "IC50": 0.453}
{"smiles": "c1cc(Cc2cnc(N3CCc4ccc(-c5nc[nH]n5)cc4C3)s2)cc(-n2cccn2)c1", "note": "[Example 15]", "IC50": 1.85}
{"smiles": "c1cnn(-c2ccc(Cc3cnc(N4CCc5ccc(-c6nc[nH]n6)cc5C4)s3)cc2)c1", "note": "[Example 16]", "IC50": 0.2}
{"smiles": "c1cn(-c2ccc(Cc3cnc(N4CCc5ccc(-n6ccnc6)cc5C4)s3)cc2)cn1", "note": "[Example 17]", "IC50": 0.748}
{"smiles": "Cc1cn(-c2ccc3c(c2)CN(c2ncc(Cc4cccc(-n5cccn5)c4)s2)CC3)c(C)n1", "note": "[Example 19]", "IC50": 1.3}
{"smiles": "c1cnn(-c2ccc(Cc3cnc(N4CCc5ccc(-c6ncc[nH]6)cc5C4)s3)cc2)c1", "note": "[Example 20]", "IC50": 5.27}
{"smiles": "Cc1cn(-c2ccc3c(c2)CN(c2ncc(Cc4cccc(-n5cccn5)c4)s2)CC3)cn1", "note": "[Example 21]", "IC50": 2.62}
{"smiles": "COc1ccc(Cc2cnc(N3CCc4ccc(-n5cc(C)nc5C)cc4C3)s2)cc1-n1cccn1", "note": "[Example 22]", "IC50": 0.306}
{"smiles": "Cc1cn(-c2ccc(Cc3cnc(N4CCc5ccc(-n6cc(C)nc6C)cc5C4)s3)cc2)c(C)n1", "note": "[Example 23]", "IC50": 0.707}
{"smiles": "O=C1OCCN1c1ccc2c(c1)CN(c1ncc(Cc3ccc(-n4cccn4)cc3)s1)CC2", "note": "[Example 24]", "IC50": 0.353}
{"smiles": "O=C1NCCN1c1ccc2c(c1)CN(c1ncc(Cc3ccc(-n4cccn4)cc3)s1)CC2", "note": "[Example 25]", "IC50": 0.911}
{"smiles": "CN1CCN(c2ccc3c(c2)CN(c2ncc(Cc4ccc(-n5cccn5)cc4)s2)CC3)C1=O", "note": "[Example 26]", "IC50": 0.637}
{"smiles": "COc1cc(Cc2cnc(N3CCc4ccc(-n5cc(C)nc5C)cc4C3)s2)ccc1-n1cccn1", "note": "[Example 27]", "IC50": 0.345}
{"smiles": "O=C1OCCN1c1ccc2c(c1)CN(c1ncc(Cc3cccc(-n4cccn4)c3)s1)CC2", "note": "[Example 28]", "IC50": 1.89}
{"smiles": "O=C1OCCN1c1ccc2c(c1)CN(c1ncc(Cc3ccc(-c4ncccn4)cc3)s1)CC2", "note": "[Example 29]", "IC50": 0.858}
{"smiles": "N#Cc1ccc(Cc2cnc(N3CCc4ccc(N5CCOC5=O)cc4C3)s2)cc1", "note": "[Example 30]", "IC50": 4.42}
{"smiles": "O=C1OCCN1c1ccc2c(c1)CN(c1ncc(Cc3ccc(N4CCOCC4)cc3)s1)CC2", "note": "[Example 31]", "IC50": 0.803}
{"smiles": "O=C1OCCN1c1ccc(Cc2cnc(N3CCc4ccc(N5CCOC5=O)cc4C3)s2)cc1", "note": "[Example 32]", "IC50": 0.979}
{"smiles": "O=C1OCCN1c1ccc2c(c1)CN(c1ncc(Cc3cccc(N4CCS(=O)(=O)CC4)c3)s1)CC2", "note": "[Example 33]", "IC50": 0.903}
{"smiles": "CS(=O)(=O)c1cccc(Cc2cnc(N3CCc4ccc(N5CCOC5=O)cc4C3)s2)c1", "note": "[Example 34]", "IC50": 0.633}
{"smiles": "O=C1OCCN1c1ccc2c(c1)CN(c1ncc(Cc3cccc(N4CCOCC4)c3)s1)CC2", "note": "[Example 35]", "IC50": 0.891}
{"smiles": "O=C1OCCN1c1ccc2c(c1)CN(c1ncc(Cc3ccc(N4CCS(=O)(=O)CC4)cc3)s1)CC2", "note": "[Example 36]", "IC50": 0.666}
{"smiles": "O=C1NCCCN1c1ccc2c(c1)CN(c1ncc(Cc3ccc(-n4cccn4)cc3)s1)CC2", "note": "[Example 37]", "IC50": 9.96}
{"smiles": "CN1CCCN(c2ccc3c(c2)CN(c2ncc(Cc4ccc(-n5cccn5)cc4)s2)CC3)C1=O", "note": "[Example 38]", "IC50": 3.49}
{"smiles": "N#Cc1cccc(Cc2cnc(N3CCc4ccc(N5CCOC5=O)cc4C3)s2)c1", "note": "[Example 39]", "IC50": 2.75}
{"smiles": "O=C1OCCN1c1cccc(Cc2cnc(N3CCc4ccc(N5CCOC5=O)cc4C3)s2)c1", "note": "[Example 40]", "IC50": 0.956}
{"smiles": "O=C1OCCN1c1ccc2c(c1)CN(c1ncc(Cc3ccc(-n4cccn4)nc3)s1)CC2", "note": "[Example 41]", "IC50": 0.553}
{"smiles": "O=C1COCCN1c1ccc2c(c1)CN(c1ncc(Cc3ccc(-n4cccn4)cc3)s1)CC2", "note": "[Example 42]", "IC50": 2.47}
{"smiles": "CS(=O)(=O)c1ccc(Cc2cnc(N3CCc4ccc(N5CCOC5=O)cc4C3)s2)cc1", "note": "[Example 43]", "IC50": 0.617}
{"smiles": "Cc1cn(-c2ccc(Cc3cnc(N4CCc5ccc(N6CCOC6=O)cc5C4)s3)cc2)c(C)n1", "note": "[Example 44]", "IC50": 0.552}
{"smiles": "COCCN1CCCN(c2ccc3c(c2)CN(c2ncc(Cc4ccc(-n5cccn5)cc4)s2)CC3)C1=O", "note": "[Example 45]", "IC50": 1.78}
{"smiles": "Cc1cn(-c2ccc3c(c2)CN(c2ncc(Cc4ccc(N5CCOCC5)cc4)s2)CC3)c(C)n1", "note": "[Example 46]", "IC50": 0.605}
{"smiles": "Cc1cnc(C)n1-c1ccc2c(c1)CN(c1ncc(Cc3ccc(N4CCOCC4)cc3)s1)CC2", "note": "[Example 47]", "IC50": 0.796}
{"smiles": "Cc1cn(-c2ccc3c(c2)CN(c2ncc(Cc4ccc(N5CCS(=O)(=O)CC5)cc4)s2)CC3)c(C)n1", "note": "[Example 48]", "IC50": 0.195}
{"smiles": "O=C1CCCN1c1ccc2c(c1)CN(c1ncc(Cc3ccc(-c4ncccn4)cc3)s1)CC2", "note": "[Example 49]", "IC50": 0.516}
{"smiles": "O=C1CCCN1c1ccc2c(c1)CN(c1ncc(Cc3ccc(N4CCOCC4)cc3)s1)CC2", "note": "[Example 50]", "IC50": 0.613}
{"smiles": "O=C1CCCN1c1ccc2c(c1)CN(c1ncc(Cc3ccc(N4CCS(=O)(=O)CC4)cc3)s1)CC2", "note": "[Example 51]", "IC50": 0.737}
{"smiles": "CN1CCN(c2ccc3c(c2)CN(c2ncc(Cc4ccc(-c5ncccn5)cc4)s2)CC3)C1=O", "note": "[Example 52]", "IC50": 1.36}
{"smiles": "O=C1NCCN1c1ccc2c(c1)CN(c1ncc(Cc3ccc(-c4ncccn4)cc3)s1)CC2", "note": "[Example 53]", "IC50": "> 4.17"}
{"smiles": "c1cnc(-c2ccc(Cc3cnc(N4CCc5ccc(N6CCOCC6)cc5C4)s3)cc2)nc1", "note": "[Example 54]", "IC50": 1.09}
{"smiles": "O=C1OCCN1c1ccc2c(c1)CN(c1ncc(Cc3cncc(-n4cccn4)c3)s1)CC2", "note": "[Example 55]", "IC50": 3.83}
{"smiles": "Cc1cn(-c2ccc3c(c2)CN(c2ncc(Cc4ccc(N5CCOC5=O)cc4)s2)CC3)c(C)n1", "note": "[Example 56]", "IC50": 0.317}
{"smiles": "CN1CCN(c2ccc3c(c2)CN(c2ncc(Cc4ccc(N5CCOC5=O)cc4)s2)CC3)C1=O", "note": "[Example 57]", "IC50": 0.742}
{"smiles": "O=C1OCCN1c1ccc(Cc2cnc(N3CCc4ccc(N5CCOCC5)cc4C3)s2)cc1", "note": "[Example 58]", "IC50": 1.13}
{"smiles": "CN1CCCN(c2ccc3c(c2)CN(c2ncc(Cc4ccc(C5CCOCC5)cc4)s2)CC3)C1=O", "note": "[Example 59]", "IC50": 0.73}
{"smiles": "CN1CCCN(c2ccc3c(c2)CN(c2ncc(Cc4ccc(N5CCOCC5)cc4)s2)CC3)C1=O", "note": "[Example 60]", "IC50": 9.84}
{"smiles": "CN1CCCN(c2ccc3c(c2)CN(c2ncc(Cc4ccc(S(C)(=O)=O)cc4)s2)CC3)C1=O", "note": "[Example 61]", "IC50": 4.71}
{"smiles": "O=C1OCCN1c1ccc2c(c1)CN(c1ncc(Cc3ccc(C4CCOCC4)cc3)s1)CC2", "note": "[Example 62]", "IC50": 0.362}
{"smiles": "Cc1cn(-c2ccc3c(c2)CN(c2nc(Cc4cccc(-n5cccn5)c4)cs2)CC3)c(C)n1", "note": "[Example 66]", "IC50": 4.48}
{"smiles": "Cc1cn(-c2ccc3c(c2)CN(c2ncc(Cc4cncc(-n5cccn5)c4)s2)CC3)c(C)n1", "note": "[Example 67]", "IC50": 1.19}
{"smiles": "O=C1OCCCN1c1ccc2c(c1)CN(c1ncc(Cc3ccc(-n4cccn4)cc3)s1)CC2", "note": "[Example 69]", "IC50": 4.9}
{"smiles": "CN1CCN(c2ccc3c(c2)CN(c2ncc(Cc4ccc(-n5cccn5)cc4)s2)CC3)CC1=O", "note": "[Example 70]", "IC50": 2.14}
{"smiles": "O=C1CN(c2ccc3c(c2)CN(c2ncc(Cc4ccc(-n5cccn5)cc4)s2)CC3)CCN1", "note": "[Example 71]", "IC50": 10}
{"smiles": "c1cnn(-c2ccc(Cc3cnc(N4CCc5ccc(N6CCOCC6)cc5C4)s3)cc2)c1", "note": "[Example 72]", "IC50": 0.537}
{"smiles": "O=C1CCCN1c1ccc2c(c1)CN(c1ncc(Cc3ccc(-n4cccn4)cc3)s1)CC2", "note": "[Example 73]", "IC50": 0.423}
